Assay results reported in PMC7078479, “Sulfamoyl Heteroarylcarboxylic Acids as Promising Metallo-β-Lactamase Inhibitors for Controlling Bacterial Carbapenem Resistance” (mBio, 2020).
Read-outs that look alike come from different tables or passages of the source.

Legend:
[1] = tested on: E. coli DH5α/pBC-NDM-1; assay: Susceptibility and checkerboard testing, NDM-1-producing E. coli; type: cell-based, Escherichia coli; conditions: for MIC: Escherichia coli
Procedure: (§1) MICs were determined via the microdilution method according to the CLSI guidelines ([38]). In brief, 5 × 10^4 bacterial cells were inoculated in 100 μl of cation-adjusted Mueller-Hinton broth (Becton, Dickinson and Company, Franklin Lakes, NJ) containing the β-lactams and appropriately diluted inhibitors. The final concentration of DMSO was maintained at 2% in the assays. The tested plates were then incubated at 35°C for 16 to 20 h. The MIC value was determined as the lowest concentration of tested β-lactams where no bacterial growth was visibly observed. The optical density at 600 nm (OD600) value was measured using a plate reader for drawing the heat maps. The FIC index value was calculated using the following equation: FIC index=MIC of β-lactam with inhibitor/MIC of β-lactam alone+MIC of inhibitor with β-lactam/MIC of inhibitor alone
(§2) Unless noted otherwise, the FIC index was defined as the lowest value among all obtained values. The synergistic effect was defined as the effect observed when the FIC index value was ≤0.5.

[2] = tested on: P. aeruginosa PAO1/pME-VIM-2; assay: Susceptibility testing, VIM-2-producing P. aeruginosa PAO1; type: cell-based; conditions: Pseudomonas aeruginosa
Procedure: as §1

[3] = tested on: P. aeruginosa PAO1/pME-NDM-1; assay: Susceptibility testing, NDM-1-producing P. aeruginosa PAO1; type: cell-based; conditions: Pseudomonas aeruginosa
Procedure: as §1

[4] = tested on: P. aeruginosa PAO1/pME-IMP-1; assay: Susceptibility testing, IMP-1-producing P. aeruginosa PAO1; type: cell-based; conditions: Pseudomonas aeruginosa
Procedure: as §1

[5] = tested on: E. coli DH5α/pBC-IMP-1; assay: Susceptibility and checkerboard testing, IMP-1-producing E. coli; type: cell-based, Escherichia coli; conditions: for MIC: Escherichia coli
Procedure: as §1, §2

[6] = tested on: IMP-1-producing E. coli NUBL-24; assay: Mouse infection model, E. coli NUBL-24, survival; type: in vivo, mice
Procedure: (§3) All experiments were approved by the Nagoya University Animal Ethics Committee, and all experiments were performed in a manner that minimized animal suffering. Male CD1 mice (4 weeks old; 20 to 25 g body weight) were purchased from Charles River Laboratories Japan (Yokohama, Japan). E. coli NUBL-24 (blaIMP-1) and K. pneumoniae MS5674 (blaNDM-1 and blaVIM-1) strains were inoculated on LB agar plates and grown for 18 h at 37°C. Bacteria were then scraped from the plates, and their concentration was adjusted to 5 × 10^6 to 1 × 10^7 CFU in saline solution containing 5% mucin; this solution was then i.p. injected into the mice. At 1 and 3 h after infection, saline solution, MPM, inhibitors, and a combination of MPM and inhibitor were i.p. injected. Mice were monitored for 7 days to formulate survival curves, after which they were euthanized by CO2 asphyxiation.

[7] = tested on: E. coli BL21(DE3)/pET-SIM-1; assay: Susceptibility testing, SIM-1-producing E. coli; type: cell-based; conditions: Escherichia coli
Procedure: as §1

[8] = tested on: E. coli DH5α/pBC-TMB-2; assay: Susceptibility testing, TMB-2-producing E. coli; type: cell-based; conditions: Escherichia coli
Procedure: as §1

[9] = tested on: IMP-type MBL-producing Enterobacteriaceae; assay: Susceptibility testing, 19 IMP-type MBL-producing Enterobacteriaceae isolates; type: cell-based
Procedure: as §1

[10] = tested on: P. aeruginosa PAO1/pME6032; assay: Susceptibility testing, P. aeruginosa PAO1 with empty vector; type: cell-based; conditions: Pseudomonas aeruginosa, PAO1, read-out: MIC of MPM without inhibitor
Procedure: as §1

[11] = tested on: IMP-1-producing E. coli NUBL-24; assay: Susceptibility and checkerboard testing, E. coli NUBL-24; type: cell-based; conditions: Escherichia coli; E. coli NUBL-24 (blaIMP-1), MPM alone
Procedure: as §1, §2
The initial density of E. coli NUBL-24 (blaIMP-1) (MPM MIC, 8 μg/ml) was adjusted to approximately 5 × 10^6 CFU/ml. Either MPM (1 μg/ml) alone or SFC (10 μg/ml) alone or a combination of the two was added to the bacterial solution, and then incubation was performed at 37°C. LB broth containing only bacteria was used as a control. […]

[12] = tested on: E. coli BL21(DE3)/pET-KHM-1; assay: Susceptibility testing, KHM-1-producing E. coli; type: cell-based; conditions: Escherichia coli
Procedure: as §1

[13] = tested on: E. coli DH5α/pBC-VIM-2; assay: Susceptibility and checkerboard testing, VIM-2-producing E. coli; type: cell-based, Escherichia coli; conditions: for MIC: Escherichia coli
Procedure: as §1, §2

[14] = tested on: IMP-1-producing Acinetobacter spp.; assay: Susceptibility testing, 8 IMP-1-producing Acinetobacter spp. isolates; type: cell-based; conditions: addition of SPC, concentration not given (Fig. S5)
Procedure: as §1

[15] = tested on: E. coli BL21(DE3)/pET-DIM-1; assay: Susceptibility testing, DIM-1-producing E. coli; type: cell-based; conditions: Escherichia coli
Procedure: as §1

[16] = tested on: E. coli BL21(DE3)/pET-SPM-1; assay: Susceptibility testing, SPM-1-producing E. coli; type: cell-based; conditions: Escherichia coli
Procedure: as §1

[17] = biological target: T1, VIM-2 (Escherichia coli, UniProt Q5U7L7); assay: Inhibition of IPM hydrolysis by purified VIM-2, Ki by Lineweaver-Burk plots; type: biochemical; conditions: IPM as substrate, competitive model, mean of three replicates; read-out: Inhibition constant Ki VIM-2
T1 construct: made in house
Procedure: (§4) MBL (10 nM) was mixed with the inhibitors and incubated for 5 min at 30°C. IPM was added to reach a concentration of 150 μM, and the velocity of IPM hydrolysis was monitored at 298 nm. The assay was performed at 30°C using 10 mM HEPES (pH 7.5) buffer containing 200 mM NaCl and 50 μg/ml bovine serum albumin (BSA) for IMP-1, NDM-1, VIM-2, and SMB-1. For SFH-1 and L1, another 10 mM HEPES (pH 7.5) buffer containing 200 mM NaCl, 20 μM ZnSO4, and 50 μg/ml BSA was used.
(§5) Initial velocities (vo) were measured after varying the concentrations of IPM and inhibitors, and inverse velocities (1/vo) were plotted against inverse IPM concentrations […]. Lineweaver-Burk plots were constructed to obtain the inhibition constant (Ki) with the competitive inhibition model using the SigmaPlot 13 suite (Hulinks).

[18] = Human liver microsomal stability test; type: in vitro ADME; conditions: 100 nM compound, 0.1 mg protein/ml, 35 min, 37°C
Procedure: Human liver microsomal stability tests were performed by Sumika Chemical Analysis Service (Osaka, Japan). Compounds (100 nM) were incubated with human liver microsomes (0.1 mg protein/ml) for 35 min at 37°C and subjected to liquid chromatography-tandem mass spectrometry (LC-MS/MS) for quantification of the loss of the tested compounds.

[19] = tested on: dually NDM-1/VIM-1-producing Klebsiella pneumoniae MS5674; assay: Mouse infection model, K. pneumoniae MS5674, survival; type: in vivo, mice; conditions: MPM 4 mg/kg and SPC 10 mg/kg versus MPM alone, K. pneumoniae MS5674 1 × 10^7 CFU
Procedure: as §3

[20] = tested on: HeLa cells; assay: Toxicity assay in HeLa cells (CellTiter 96 AQueous); type: cell-based; conditions: 24 h exposure, cell proliferation assay
Procedure: HeLa cells were seeded at 5,000 cells per well in 96-well plates and cultured in Dulbecco’s modified Eagle’s medium (DMEM) (Wako Pure Chemical Industries, Osaka, Japan). After incubation for 24 h at 37°C with 5% CO2, staurosporine (Sigma-Aldrich, St. Louis, MO) and SHCs were added to each well (final DMSO concentration was 1%), after which the plates were incubated for another 24 h. Twenty microliters of tetrazolium solution, obtained from a CellTiter 96 AQueous one-solution cell proliferation assay kit (Promega, Madison, WI), was added into each well. The plate was incubated for 3 h under the same conditions mentioned above, and the absorbance at 490 nm was measured for the determination of cell proliferation.

[21] = tested on: NDM-type MBL-producing Enterobacteriaceae; assay: Susceptibility testing, 14 NDM-type MBL-producing Enterobacteriaceae isolates; type: cell-based; conditions: NDM producers
Procedure: as §1

[22] = biological target: T2, NDM-1 (Klebsiella pneumoniae, UniProt C7C422); assay: Inhibition of IPM hydrolysis by purified NDM-1, Ki by Lineweaver-Burk plots; type: biochemical; conditions: IPM as substrate, competitive model, mean of three replicates; read-out: Inhibition constant Ki NDM-1
T2 construct: made in house
T2 sequence (C7C422 29-270 limits assumed): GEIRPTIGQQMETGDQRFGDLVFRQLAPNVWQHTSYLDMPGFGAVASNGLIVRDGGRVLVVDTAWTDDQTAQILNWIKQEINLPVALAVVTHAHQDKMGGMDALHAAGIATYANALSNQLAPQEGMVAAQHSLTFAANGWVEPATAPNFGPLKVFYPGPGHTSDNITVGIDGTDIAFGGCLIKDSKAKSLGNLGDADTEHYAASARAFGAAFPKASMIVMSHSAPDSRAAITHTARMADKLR
Procedure: as §4, §5

[23] = biological target: T3, IMP-1 (Serratia marcescens, UniProt P52699); assay: Inhibition of IPM hydrolysis by purified IMP-1, Ki by Lineweaver-Burk plots; type: biochemical
T3 construct: made in house
T3 sequence (P52699 19-246 limits assumed): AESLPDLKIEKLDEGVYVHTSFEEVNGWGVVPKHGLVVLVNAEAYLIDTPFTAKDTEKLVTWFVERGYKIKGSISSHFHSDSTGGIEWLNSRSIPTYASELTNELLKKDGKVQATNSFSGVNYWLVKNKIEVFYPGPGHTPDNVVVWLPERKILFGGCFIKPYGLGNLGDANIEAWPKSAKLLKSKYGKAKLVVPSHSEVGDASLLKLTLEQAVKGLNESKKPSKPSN
Procedure: as §4, §5

[24] = read-out: MIC of MPM without inhibitor
[25] = PAO1, read-out: MIC of MPM without inhibitor
[26] = read-out: MIC of MPM + inhibitor (8 μg/ml)
[27] = read-out: MIC of MPM + inhibitor (32 μg/ml)
[28] = PAO1, read-out: MIC of MPM + inhibitor (10 μg/ml)
[29] = PAO1, read-out: MIC of MPM + inhibitor (50 μg/ml)

C[C@@H](O)[C@H]1C(=O)N2C(C(=O)O)=C(S[C@@H]3CN[C@H](C(=O)N(C)C)C3)[C@H](C)[C@H]12 [MPM, meropenem, reference compound]
MIC [1, 24]: 64 µg/mL
MIC [2, 25]: 32 µg/mL
MIC [3, 25]: 8 µg/mL
MIC [4, 25]: 128 µg/mL
MIC of MPM without inhibitor ([5]; E. coli DH5α/pBC-IMP-1): 1 µg/mL
MIC [5, 24]: 1 µg/mL
Rescue of infected mice by monotherapy ([6]; SFC 100 mg/kg or MPM 0.2 mg/kg i.p. at 1 and 3 h after infection, within 48 h): failed to rescue mice
MIC [7, 24]: 16 µg/mL
MIC [8, 24]: 16 µg/mL
MIC ([9]; read-out: MIC of MPM alone): ≥ 2 µg/mL
MIC [10]: 0.5 µg/mL
MIC [11]: 8 µg/mL

CCc1c(C(=O)O)c(S(N)(=O)=O)c(CC)n1C [SPC, 2,5-diethyl-1-methyl-4-sulfamoylpyrrole-3-carboxylic acid]
MIC [12, 26]: 0.125 µg/mL
MIC [12, 27]: 0.063 µg/mL
Reduction in CAZ MIC ([13]; E. coli DH5α/pBC-VIM-2, 2 μg/ml compound): 16 fold
MIC ([13]; read-out: MIC of CAZ + inhibitor (8 μg/ml)): 1 µg/mL
MIC ([13]; read-out: MIC of CAZ + inhibitor (32 μg/ml)): 1 µg/mL
Isolates whose MPM MIC decreased to susceptibility criteria (MIC ≤2 μg/ml) [14]: 6/8
MIC [15, 26]: 2 µg/mL
MIC [15, 27]: 0.063 µg/mL
MIC [16, 26]: 0.063 µg/mL
MIC [16, 27]: 0.063 µg/mL
Ki [17]: 20 nM
Reduction in MPM MIC ([1]; E. coli DH5α/pBC-NDM-1, 2 μg/ml compound): 256 fold
MIC [1, 26]: ≤ 0.25 µg/mL
MIC [1, 27]: ≤ 0.25 µg/mL
MIC [2, 28]: 8 µg/mL
MIC [2, 29]: 4 µg/mL
MIC [3, 28]: 4 µg/mL
MIC [3, 29]: 4 µg/mL
MIC [4, 28]: 64 µg/mL
MIC [4, 29]: 16 µg/mL
Stability in human liver microsomes [18]: high stability
Reduction in MPM MIC ([5]; E. coli DH5α/pBC-IMP-1, 2 μg/ml compound): 32 fold
MIC [5, 26]: 0.031 µg/mL
MIC [5, 27]: 0.031 µg/mL
Mortality of infected mice under MPM-SPC combination therapy ([6]; MPM 0.8 mg/kg and SPC 10 mg/kg versus MPM alone, E. coli NUBL-24 1 × 10^7 CFU): significantly reduced the mortality
MIC [7, 26]: 1 µg/mL
MIC [7, 27]: 0.125 µg/mL
MIC [8, 26]: 0.063 µg/mL
MIC [8, 27]: 0.031 µg/mL
Mortality of infected mice under MPM-SPC combination therapy [19]: significantly reduced the mortality
Toxicity in HeLa cells [20]: low toxicity
Isolates whose MPM MIC decreased to susceptibility criteria (MIC ≤1 μg/ml) ([9]; addition of inhibitor, concentration not given (Fig. S5), IMP-producing Enterobacteriaceae): 17/19
Isolates with equal or increased reactivity toward SPC instead of SFC ([9]; reduction in MPM MIC, 4 μg/ml SPC and SFC, IMP producers): 18/19
Isolates whose MPM MIC decreased to susceptibility criteria (MIC ≤1 μg/ml) ([21]; addition of inhibitor, concentration not given (Fig. S5)): 7/14
Isolates with equal or increased reactivity toward SPC instead of SFC ([21]; reduction in MPM MIC, 4 μg/ml SPC and SFC): 14/14
Ki [22]: 840 nM
Ki [23]: 260 nM
